Results reported in PMC8196580, “Identification of Kaurane-Type Diterpenes as Inhibitors of Leishmania Pteridine Reductase I” (Molecules, 2021).
Where two headings read alike, the source gives them in different places.

Key:
[1] = tested on: L. major; test: ChEMBL dataset of pIC50 values against L. major used for the RF model (Table S1); format: cell-based, Leishmania major; also: call rule not given here
[2] = tested on: L. major; set-up: method as in ChEMBL; settings: ref ChEMBL, cited from earlier work
[3] = Active/Inactive class assigned to the ChEMBL pIC50 value for Random forest model construction, ref ChEMBL
[4] = ChemBL structures with pIC50 values used for Random forest model construction, L. major
[5] = Active/Inactive class assigned to ChemBL structures for Random forest model construction (Table S1)
[6] = ChemBL structures with pIC50 values used for Random forest model construction (Table S1)

In the case of `CCCCCCCCCC(=O)OCCc1ccc(O)cc1` [CHEMBL3960630], the Outcome [1, 3] is given as “Inactive” and the “pIC50 Value” [2, 4] is given as 4.19.

For `COc1ccc(/C=N\NC(N)=S)cc1OCc1cn(CC(=O)c2ccccc2)nn1` [CHEMBL4171583], the Outcome [1, 5] is listed as “Active” and the “pIC50 Value” [2, 6] is listed as 5.36.

For `Cc1cccc2cc(C3CC(c4ccc(Br)s4)=NN3)c(Cl)nc12` (stereo not drawn) [CHEMBL2236133], the Outcome [1, 5] is listed as “Active” and the “pIC50 Value” [2, 6] is listed as 5.64.

In the case of `CC1=N[C@H](C)Cc2c(-c3cccc(Cl)c3)ccc(O)c21` [CHEMBL1275866], the Outcome [1, 3] is given as “Inactive” and the “pIC50 Value” [2, 4] is given as 4.28.

For `CCC(C)NC(=N)c1ccc(N2CCN(c3nnc(-c4ccc([N+](=O)[O-])o4)s3)CC2)cc1.Cl` (stereo not drawn) [CHEMBL1783205], the Outcome [1, 3] is listed as “Inactive” and the “pIC50 Value” [2, 4] is listed as 4.48.

For `COc1ccccc1-c1nnc(-c2ccc(C(=O)N/N=C/c3ccc(C)cc3)cc2)o1` [CHEMBL4079056], the Outcome [1, 3] is listed as “Inactive” and the “pIC50 Value” [2, 4] is listed as 4.53.

For `c1ccc2c(Nc3ccc(CN4CCCC4)cc3)c3ccccc3nc2c1` [CHEMBL91079], the Outcome [1, 5] is given as “Active” and the “pIC50 Value” [2, 6] is given as 6.70.

For `Cc1cccc2cc(/C=C/C(=O)c3ccc(I)s3)c(Cl)nc12` [CHEMBL1940871], the Outcome [1, 5] is listed as “Active” and the “pIC50 Value” [2, 6] is listed as 5.82.

In the case of `CCC/C=C/C=C/c1nc2ccccc2n2cccc12` [CHEMBL3260210], the Outcome [1, 5] is listed as “Active” and the “pIC50 Value” [2, 6] is listed as 5.41.

In the case of `CO[C@H]1C[C@@H](C)[C@H]2[C@H](C[C@@]3(C)[C@@H]4C[C@H](O)[C@H]5C(C)(C)[C@@H](O[C@@H]6OC[C@@H](O)[C@@H](O)[C@H]6O)CC[C@@]56C[C@@]46CC[C@]23C)O1` [CHEMBL450438], the Outcome [1, 3] is given as “Inactive” and the “pIC50 Value” [2, 4] is given as 4.03.

For `Clc1cc(Cl)cc(-c2c(-c3ccccc3)nc3cnccn23)c1` [CHEMBL3634355], the Outcome [1, 3] is listed as “Inactive” and the “pIC50 Value” [2, 4] is listed as 4.99.

In the case of `CCCCN1CSC(=S)N(C(C)c2ccccc2)C1` (stereo not drawn) [CHEMBL4287541], the Outcome [1, 3] is listed as “Inactive” and the “pIC50 Value” [2, 4] is listed as 4.67.

For `CC(C)C1=CC(=O)C2=C(CC[C@H]3C(C)(C)CCC[C@]23C)C1=O` [CHEMBL3355361], the Outcome [1, 5] is given as “Active” and the “pIC50 Value” [2, 6] is given as 6.74.

In the case of `O=[N+]([O-])c1ccc(-c2nnc(N3CCCCC3)s2)o1` [CHEMBL372172], the Outcome [1, 5] is given as “Active” and the “pIC50 Value” [2, 6] is given as 5.49.

In the case of `COc1ccc(/C=N/NC(N)=S)cc1OCc1cn(-c2ccc(S(N)(=O)=O)cc2)nn1` [CHEMBL4165645], the Outcome [1, 5] is listed as “Active” and the “pIC50 Value” [2, 6] is listed as 5.36.

In the case of `CC(C)(C)C(=O)Oc1ccc(-c2c(-c3ccccc3)nc3ccccn23)cc1` [CHEMBL2151861], the Outcome [1, 3] is given as “Active” and the “pIC50 Value” [2, 4] is given as 5.15.

For `O=C(c1ccccc1Cl)N1CCN(c2nnc(-c3ccc([N+](=O)[O-])o3)s2)CC1` [CHEMBL458179], the Outcome [1, 3] is given as “Inactive” and the “pIC50 Value” [2, 4] is given as 4.97.

In the case of `Cc1ccccc1/N=C/c1cn(C)c2ccccc12` [CHEMBL2071558], the Outcome [1, 5] is listed as “Active” and the “pIC50 Value” [2, 6] is listed as 5.64.

In the case of `CCC/C=C/C=C/c1nc2cccc(OC)c2n2cccc12` [CHEMBL3260213], the Outcome [1, 5] is given as “Active” and the “pIC50 Value” [2, 6] is given as 5.41.

In the case of `CCN1CSC(=S)N(CC(=O)O)C1` [CHEMBL4294782], the Outcome [1, 3] is listed as “Inactive” and the “pIC50 Value” [2, 4] is listed as 4.34.

In the case of `CC(=O)C1=C(CNc2ccc(C(=O)/C=C/c3ccc(O)cc3)cc2)N(C)C(=O)NC1c1ccccc1` (stereo not drawn) [CHEMBL3786140], the Outcome [1, 5] is listed as “Active” and the “pIC50 Value” [2, 6] is listed as 5.98.

For `Cc1ccc2cc(/C=C/C(=O)c3ccc(Cl)s3)c(Cl)nc2c1` [CHEMBL1940856], the Outcome [1, 5] is given as “Active” and the “pIC50 Value” [2, 6] is given as 5.63.

In the case of `CCOC(=O)c1ccc(-c2c(-c3ccccc3)nc3cnccn23)cc1` [CHEMBL3634353], the Outcome [1, 3] is listed as “Inactive” and the “pIC50 Value” [2, 4] is listed as 4.76.

In the case of `C[C@@H]([C@H]1CC=C2[C@@H]3CCC4=C[C@@H](N(C)C)CC[C@]4(C)[C@H]3CC[C@@]21C)N(C)C` [CHEMBL496488], the Outcome [1, 3] is given as “Active” and the “pIC50 Value” [2, 4] is given as 5.17.

For `O=C(/C=C/c1ccc(-n2ccnc2)cc1)c1c(F)cccc1F` [CHEMBL570962], the Outcome [1, 5] is given as “Active” and the “pIC50 Value” [2, 6] is given as 5.51.

In the case of `COc1c2c(cc(O)c1-c1c(C)cc3cccc(OC)c3c1O)C[C@H](C)N=C2C` [CHEMBL221884], the Outcome [1, 3] is listed as “Inactive” and the “pIC50 Value” [2, 4] is listed as 4.48.

In the case of `Cc1ccc(C(=O)/C=C/c2cc3cccc(C)c3nc2Cl)s1` [CHEMBL1940864], the Outcome [1, 5] is given as “Active” and the “pIC50 Value” [2, 6] is given as 5.73.

For `C=C[C@H](/C=C\c1ccc(O)cc1)c1ccc(O)cc1` [CHEMBL451713], the Outcome [1, 3] is given as “Inactive” and the “pIC50 Value” [2, 4] is given as 4.92.

For `CCc1ccc(-[n+]2c(C)cc3cc(OC)cc(OC)c3c2C)cc1.F[B-](F)(F)F` [CHEMBL479649], the Outcome [1, 3] is given as “Active” and the “pIC50 Value” [2, 4] is given as 5.26.

For `CCCN1CN(CC(=O)OCC)CSC1=S` [CHEMBL4279218], the Outcome [1, 3] is listed as “Inactive” and the “pIC50 Value” [2, 4] is listed as 3.97.

In the case of `O=C(/C=C/c1ccccc1Br)C1=Cc2cc(Cl)ccc2OC1` [CHEMBL1094316], the Outcome [1, 5] is given as “Active” and the “pIC50 Value” [2, 6] is given as 5.88.

For `O=C(CCCl)N1c2ccccc2Oc2ccc(Cl)cc21` [CHEMBL3759105], the Outcome [1, 3] is given as “Inactive” and the “pIC50 Value” [2, 4] is given as 4.80.

In the case of `COc1ccc(O)c(/C=N/NC(=O)c2ccccc2OC)c1` [CHEMBL2382038], the Outcome [1, 3] is listed as “Inactive” and the “pIC50 Value” [2, 4] is listed as 4.00.

In the case of `COc1ccc(/C=N/NC(N)=S)cc1OCc1cn(CC(=O)c2ccc(F)cc2)nn1` [CHEMBL4167146], the Outcome [1, 5] is given as “Active” and the “pIC50 Value” [2, 6] is given as 5.32.

For `Cc1cccc2cc(C3CC(c4cc(Cl)sc4Cl)=NN3)c(Cl)nc12` (stereo not drawn) [CHEMBL2236131], the Outcome [1, 5] is given as “Active” and the “pIC50 Value” [2, 6] is given as 5.70.

For `CCCC/C=C/C=C/c1nc2cc(OC)ccc2n2cccc12` [CHEMBL3260215], the Outcome [1, 5] is given as “Active” and the “pIC50 Value” [2, 6] is given as 5.60.

For `c1ccc(-c2nc3ccccn3c2-c2ccncc2)cc1` [CHEMBL2151870], the Outcome [1, 3] is listed as “Active” and the “pIC50 Value” [2, 4] is listed as 5.19.

For `COc1ccccc1-c1nnc(-c2ccc(C(=O)N/N=C/c3cccc([N+](=O)[O-])c3)cc2)o1` [CHEMBL4086911], the Outcome [1, 3] is listed as “Inactive” and the “pIC50 Value” [2, 4] is listed as 4.13.

In the case of `O=C(O)CN1CN(CCO)CSC1=S` [CHEMBL4290046], the Outcome [1, 3] is given as “Inactive” and the “pIC50 Value” [2, 4] is given as 4.40.

In the case of `Cc1cccc2cc(/C=C/C(=O)c3ccsc3)c(Cl)nc12` [CHEMBL1940861], the Outcome [1, 5] is listed as “Active” and the “pIC50 Value” [2, 6] is listed as 5.71.

For `O=C(c1ccc(Cl)cc1)N1CCN(c2nnc(-c3ccc([N+](=O)[O-])s3)s2)CC1` [CHEMBL515851], the Outcome [1, 3] is given as “Inactive” and the “pIC50 Value” [2, 4] is given as 4.62.

In the case of `COc1cc(OC)c2c(C)[n+](-c3cccc4ccccc34)c(C)cc2c1.F[B-](F)(F)F` [CHEMBL479641], the Outcome [1, 5] is given as “Active” and the “pIC50 Value” [2, 6] is given as 5.79.

For `COc1c(C)cc(O)c2c(OC)cccc12` [CHEMBL2071224], the Outcome [1, 3] is listed as “Inactive” and the “pIC50 Value” [2, 4] is listed as 4.00.

In the case of `Cc1ccc2cc(C3CC(c4sccc4Br)=NN3)c(Cl)nc2c1` (stereo not drawn) [CHEMBL2236143], the Outcome [1, 5] is listed as “Active” and the “pIC50 Value” [2, 6] is listed as 5.68.

For `COc1ccc(/C=N/NC(=O)c2ccccc2OC)cc1O` [CHEMBL2382051], the Outcome [1, 3] is given as “Inactive” and the “pIC50 Value” [2, 4] is given as 4.34.

For `COc1cccc2cc(C)cc(O)c12` [CHEMBL2071228], the Outcome [1, 3] is given as “Inactive” and the “pIC50 Value” [2, 4] is given as 4.30.

For `O=C(CCl)N1c2ccccc2COc2ccc(Cl)cc21` [CHEMBL3758404], the Outcome [1, 3] is listed as “Active” and the “pIC50 Value” [2, 4] is listed as 5.14.

For `O=[N+]([O-])c1ccc(-c2nnc(N3CCNCC3)s2)s1` [CHEMBL193685], the Outcome [1, 3] is listed as “Inactive” and the “pIC50 Value” [2, 4] is listed as 3.82.
